The record followed here is PMC5218480 (PLoS ONE, 2017).

The assay has as its system MV-4-11 cells. Kind of assay: Gene expression microarray analysis (Affymetrix PrimeView) and GSEA. The format is cell-based, human. Further details: RFU PODN (11730768_x_at) / Fold change /veh PODN (11730768_x_at) / RFU LINC00158 (11744669_a_at) / Fold change /veh LINC00158 (11744669_a_at) / RFU DUSP10 (11751237_a_at) / Fold change /veh DUSP10 (11751237_a_at) / RFU ID3 (11757404_x_at) / Fold change /veh ID3 (11757404_x_at) / RFU PLEKHG5 (11737974_s_at) / Fold change /veh PLEKHG5 (11737974_s_at) / RFU LRRC4B (11730491_at) / Fold change /veh LRRC4B (11730491_at) / RFU GIMAP4 (11747438_a_at) / Fold change /veh GIMAP4 (11747438_a_at) / RFU KRT8 (11758183_x_at) / Fold change /veh KRT8 (11758183_x_at) / RFU CNN1 (11734310_a_at) / Fold change /veh CNN1 (11734310_a_at) / RFU VPS37D (11726825_at) / Fold change /veh VPS37D (11726825_at) / RFU C10orf10 (11716522_x_at) / Fold change /veh C10orf10 (11716522_x_at) / RFU KIR2DL2 /// KIR2DL4 /// KIR2DL5A /// KIR2DL5B /// KIR2DS1 /// KIR2DS2 /// KIR2DS3 /// KIR2DS4 /// KIR3DL3 /// KIR3DL3 /// KIR3DS1 (11738374_at) / Fold change /veh KIR2DL2 /// KIR2DL4 /// KIR2DL5A /// KIR2DL5B /// KIR2DS1 /// KIR2DS2 /// KIR2DS3 /// KIR2DS4 /// KIR3DL3 /// KIR3DL3 /// KIR3DS1 (11738374_at) / RFU C1QL1 (11718748_at) / Fold change /veh C1QL1 (11718748_at) / RFU TMPRSS4 (11747572_a_at) / Fold change /veh TMPRSS4 (11747572_a_at) / RFU HAMP (11756126_x_at) / Fold change /veh HAMP (11756126_x_at) / RFU RNFT2 (11725882_a_at) / Fold change /veh RNFT2 (11725882_a_at) / RFU NR4A2 (11747474_a_at) / Fold change /veh NR4A2 (11747474_a_at) / RFU ABCC12 (11746883_a_at) / Fold change /veh ABCC12 (11746883_a_at) / RFU TMEM136 (11760407_x_at) / Fold change /veh TMEM136 (11760407_x_at) / RFU CLDN22 /// WWC2 (11732394_at) / Fold change /veh CLDN22 /// WWC2 (11732394_at) / RFU HLA-DPB1 (11760878_x_at) / Fold change /veh HLA-DPB1 (11760878_x_at) / RFU SPINT1 (11716480_a_at) / Fold change /veh SPINT1 (11716480_a_at) / RFU GAP43 (11754022_s_at) / Fold change /veh GAP43 (11754022_s_at) / RFU A4GNT (11735810_at) / Fold change /veh A4GNT (11735810_at) / RFU PRB3 (11715151_x_at) / Fold change /veh PRB3 (11715151_x_at) / RFU TUBB4B (11761932_at) / Fold change /veh TUBB4B (11761932_at) / RFU CAPN14 (11732068_a_at) / Fold change /veh CAPN14 (11732068_a_at) / RFU TMCC2 (11721928_a_at) / Fold change /veh TMCC2 (11721928_a_at) / RFU IRGQ (11745062_a_at) / Fold change /veh IRGQ (11745062_a_at) / RFU FAM174B (11720279_a_at) / Fold change /veh FAM174B (11720279_a_at) / RFU TMPRSS4 (11748680_a_at) / Fold change /veh TMPRSS4 (11748680_a_at) / RFU FAM212B (11763350_a_at) / Fold change /veh FAM212B (11763350_a_at) / RFU PLEKHG5 (11743358_a_at) / Fold change /veh PLEKHG5 (11743358_a_at) / RFU ZSCAN30 (11745921_a_at) / Fold change /veh ZSCAN30 (11745921_a_at) / RFU CMKLR1 (11741424_a_at) / Fold change /veh CMKLR1 (11741424_a_at) / RFU LOC101060620 /// MAPK8IP1 (11723275_at) / Fold change /veh LOC101060620 /// MAPK8IP1 (11723275_at) / RFU SPTSSB (11747773_x_at) / Fold change /veh SPTSSB (11747773_x_at) / RFU PRSS12 (11739890_at) / Fold change /veh PRSS12 (11739890_at) / RFU BIN1 (11741810_x_at) / Fold change /veh BIN1 (11741810_x_at) / RFU WNT11 (11732464_a_at) / Fold change /veh WNT11 (11732464_a_at) / RFU C10orf10 (11716521_a_at) / Fold change /veh C10orf10 (11716521_a_at) / RFU C5orf56 (11738089_at) / Fold change /veh C5orf56 (11738089_at) / RFU CYB561 (11721691_x_at) / Fold change /veh CYB561 (11721691_x_at) / RFU ANKRD19P (11752326_a_at) / Fold change /veh ANKRD19P (11752326_a_at) / RFU OR2T12 /// OR2T33 /// OR2T8 (11738714_s_at) / Fold change /veh OR2T12 /// OR2T33 /// OR2T8 (11738714_s_at) / RFU VCAN (11748164_a_at) / Fold change /veh VCAN (11748164_a_at) / RFU JSRP1 (11732532_at) / Fold change /veh JSRP1 (11732532_at) / RFU KRTAP10-11 (11738290_x_at) / Fold change /veh KRTAP10-11 (11738290_x_at) / RFU MYO3A (11730013_a_at) / Fold change /veh MYO3A (11730013_a_at) / RFU EBF3 (11725865_a_at) / Fold change /veh EBF3 (11725865_a_at) / RFU CAMK2N1 (11719241_x_at) / Fold change /veh CAMK2N1 (11719241_x_at) / RFU C5orf56 (11738088_a_at) / Fold change /veh C5orf56 (11738088_a_at) / RFU OLFML3 (11715873_a_at) / Fold change /veh OLFML3 (11715873_a_at) / RFU LOC100653217 /// NTM (11731650_a_at) / Fold change /veh LOC100653217 /// NTM (11731650_a_at) / RFU MAPK11 (11762145_a_at) / Fold change /veh MAPK11 (11762145_a_at) / RFU FIZ1 (11724087_x_at) / Fold change /veh FIZ1 (11724087_x_at) / RFU OASL (11726364_x_at) / Fold change /veh OASL (11726364_x_at) / RFU SOX15 (11748057_x_at) / Fold change /veh SOX15 (11748057_x_at) / RFU CD79A (11719716_a_at) / Fold change /veh CD79A (11719716_a_at) / RFU HIST1H1D (11736915_at) / Fold change /veh HIST1H1D (11736915_at) / RFU CASKIN2 (11723855_a_at) / Fold change /veh CASKIN2 (11723855_a_at) / RFU LOC730098 (11760151_x_at) / Fold change /veh LOC730098 (11760151_x_at) / RFU OR4N2 (11742367_at) / Fold change /veh OR4N2 (11742367_at) / RFU PRRT2 (11749266_a_at) / Fold change /veh PRRT2 (11749266_a_at) / RFU SNX32 (11753110_a_at) / Fold change /veh SNX32 (11753110_a_at) / RFU CDHR5 (11726645_a_at) / Fold change /veh CDHR5 (11726645_a_at) / RFU RCAN1 (11760418_a_at) / Fold change /veh RCAN1 (11760418_a_at) / RFU FAM167A (11723789_a_at) / Fold change /veh FAM167A (11723789_a_at) / RFU FAM26E (11764081_at) / Fold change /veh FAM26E (11764081_at) / RFU ISYNA1 (11749810_s_at) / Fold change /veh ISYNA1 (11749810_s_at) / RFU ACY1 (11761880_at) / Fold change /veh ACY1 (11761880_at) / RFU 11764098_at / Fold change /veh 11764098_at / RFU SAMD14 (11745864_x_at) / Fold change /veh SAMD14 (11745864_x_at) / RFU NPB (11741838_a_at) / Fold change /veh NPB (11741838_a_at) / RFU TMPRSS6 (11731388_a_at) / Fold change /veh TMPRSS6 (11731388_a_at) / RFU KRTAP10-2 (11738614_at) / Fold change /veh KRTAP10-2 (11738614_at) / RFU ARHGAP8 /// PRR5-ARHGAP8 (11727945_x_at) / Fold change /veh ARHGAP8 /// PRR5-ARHGAP8 (11727945_x_at) / RFU KRTAP5-7 /// NADSYN1 (11734609_at) / Fold change /veh KRTAP5-7 /// NADSYN1 (11734609_at) / RFU RASL12 (11751679_a_at) / Fold change /veh RASL12 (11751679_a_at) / RFU CDKN2B (11736163_a_at) / Fold change /veh CDKN2B (11736163_a_at) / RFU PRF1 (11729649_at) / Fold change /veh PRF1 (11729649_at) / RFU, ZNF638 /// ZNF638-IT1 / Fold change vs veh, ZNF638 /// ZNF638-IT1 / RFU, PANK3 / Fold change vs veh, PANK3 / RFU, SH3YL1 / Fold change vs veh, SH3YL1 / RFU, ZEB2 / Fold change vs veh, ZEB2 / RFU, NRIP1 / Fold change vs veh, NRIP1 / RFU, PTTG1IP / Fold change vs veh, PTTG1IP / RFU, CAPN2 / Fold change vs veh, CAPN2 / RFU, MED14 / Fold change vs veh, MED14 / RFU, SNORA58 / Fold change vs veh, SNORA58 / RFU, C1orf63 / Fold change vs veh, C1orf63 / RFU, LRRFIP1 / Fold change vs veh, LRRFIP1 / RFU, NDUFAF7 / Fold change vs veh, NDUFAF7 / RFU, SLC12A2 / Fold change vs veh, SLC12A2 / RFU, IBTK / Fold change vs veh, IBTK / RFU, ESF1 / Fold change vs veh, ESF1 / Fold change vs veh, TMEM50B / RFU, TAOK1 / Fold change vs veh, TAOK1 / RFU, ACBD3 / Fold change vs veh, ACBD3 / RFU, TMA16 / Fold change vs veh, TMA16 / RFU, RWDD3 / Fold change vs veh, RWDD3 / RFU, BCAT1 / Fold change vs veh, BCAT1 / RFU, EDEM3 / Fold change vs veh, EDEM3 / RFU, TMEM33 / Fold change vs veh, TMEM33 / RFU, WDR75 / Fold change vs veh, WDR75 / RFU, AHCTF1 / Fold change vs veh, AHCTF1 / RFU, TFRC / Fold change vs veh, TFRC / RFU, ZDHHC17 / Fold change vs veh, ZDHHC17 / RFU, NOM1 / Fold change vs veh, NOM1 / RFU, ARL8B / Fold change vs veh, ARL8B / RFU, ZBTB11 / Fold change vs veh, ZBTB11 / RFU, TAMM41 / Fold change vs veh, TAMM41 / RFU, KIAA1704 /// LOC100996395 / Fold change vs veh, KIAA1704 /// LOC100996395 / RFU, ING1 / Fold change vs veh, ING1 / RFU, TRMT61B / Fold change vs veh, TRMT61B / RFU, FUBP3 / Fold change vs veh, FUBP3 / RFU, TP53 / Fold change vs veh, TP53 / RFU, TNKS2 / Fold change vs veh, TNKS2 / RFU, ZFP14 / Fold change vs veh, ZFP14 / RFU, ACTR2 / Fold change vs veh, ACTR2 / RFU, PPP3R1 / Fold change vs veh, PPP3R1 / RFU, PIK3R1 / Fold change vs veh, PIK3R1 / RFU, HNRNPA1 / Fold change vs veh, HNRNPA1 / RFU, RNF170 / Fold change vs veh, RNF170 / RFU, ZNF28 / Fold change vs veh, ZNF28 / RFU, RNGTT / Fold change vs veh, RNGTT / RFU, OGT / Fold change vs veh, OGT / RFU, BRD1 / Fold change vs veh, BRD1 / RFU, MARS / Fold change vs veh, MARS / RFU, ZNF655 / Fold change vs veh, ZNF655 / RFU, FAHD1 / Fold change vs veh, FAHD1 / RFU, BDP1 / Fold change vs veh, BDP1 / RFU, LRRCC1 / Fold change vs veh, LRRCC1 / RFU, ARID1A / Fold change vs veh, ARID1A / RFU, ZNF146 / Fold change vs veh, ZNF146 / RFU, ZNF330 / Fold change vs veh, ZNF330 / RFU, GPN3 / Fold change vs veh, GPN3 / RFU, C9orf123 / Fold change vs veh, C9orf123 / RFU, N4BP2L2 / Fold change vs veh, N4BP2L2 / RFU, ARFIP1 / Fold change vs veh, ARFIP1 / RFU, FAM179B / Fold change vs veh, FAM179B / RFU, BCL10 / Fold change vs veh, BCL10 / RFU, UHRF1BP1L / Fold change vs veh, UHRF1BP1L / RFU, BET1 / Fold change vs veh, BET1 / RFU, CNOT2 / Fold change vs veh, CNOT2 / RFU, ZNF268 / Fold change vs veh, ZNF268 / Fold change vs veh, ZNF507 / RFU, DGCR2 / Fold change vs veh, DGCR2 / RFU, WDSUB1 / Fold change vs veh, WDSUB1 / Fold change vs veh, HSP90B1 /// MIR3652 / RFU, ADSS / Fold change vs veh, ADSS / RFU, GK / Fold change vs veh, GK / RFU, ZNF148 / Fold change vs veh, ZNF148 / RFU, TAF9 / Fold change vs veh, TAF9 / RFU, SLC1A5 / Fold change vs veh, SLC1A5 / RFU, SLMO2 / Fold change vs veh, SLMO2 / RFU, ABCC4 / Fold change vs veh, ABCC4 / RFU, LOC101060439 /// RAP1B / Fold change vs veh, LOC101060439 /// RAP1B / RFU, RFX7 / Fold change vs veh, RFX7 / RFU, GTPBP10 / Fold change vs veh, GTPBP10 / RFU, CNEP1R1 / Fold change vs veh, CNEP1R1 / RFU, BIVM-ERCC5 /// ERCC5 / Fold change vs veh, BIVM-ERCC5 /// ERCC5 / RFU, ILF3 / Fold change vs veh, ILF3 / RFU 11762660_at / Fold change /veh 11762660_at / RFU VCAN (11757783_s_at) / Fold change /veh VCAN (11757783_s_at) / RFU DDX43 (11728927_at) / Fold change /veh DDX43 (11728927_at) / RFU KRT8 (11758188_x_at) / Fold change /veh KRT8 (11758188_x_at) / RFU NKD1 (11759106_at) / Fold change /veh NKD1 (11759106_at) / RFU SRD5A1 (11742802_a_at) / Fold change /veh SRD5A1 (11742802_a_at) / RFU TPSAB1 /// TPSB2 (11721975_s_at) / Fold change /veh TPSAB1 /// TPSB2 (11721975_s_at) / RFU GSTM3 (11746129_a_at) / Fold change /veh GSTM3 (11746129_a_at) / RFU IL23R (11737362_x_at) / Fold change /veh IL23R (11737362_x_at) / RFU TMEM51 (11727254_a_at) / Fold change /veh TMEM51 (11727254_a_at) / RFU PIWIL2 (11732686_x_at) / Fold change /veh PIWIL2 (11732686_x_at) / RFU ORM1 (11744905_x_at) / Fold change /veh ORM1 (11744905_x_at) / RFU CCDC152 (11743942_at) / Fold change /veh CCDC152 (11743942_at) / RFU ECM1 (11717891_a_at) / Fold change /veh ECM1 (11717891_a_at) / RFU IL23R (11748794_a_at) / Fold change /veh IL23R (11748794_a_at) / RFU TNFAIP8L3 (11732012_x_at) / Fold change /veh TNFAIP8L3 (11732012_x_at) / RFU MBOAT4 (11741988_at) / Fold change /veh MBOAT4 (11741988_at) / RFU 11764193_at / Fold change /veh 11764193_at / RFU TMEM53 (11763286_at) / Fold change /veh TMEM53 (11763286_at) / RFU MAGEB2 (11727129_at) / Fold change /veh MAGEB2 (11727129_at) / RFU TMEM200A (11744735_a_at) / Fold change /veh TMEM200A (11744735_a_at) / RFU CCDC152 (11751479_a_at) / Fold change /veh CCDC152 (11751479_a_at) / RFU FAM211A (11726209_a_at) / Fold change /veh FAM211A (11726209_a_at) / RFU RGS16 (11746705_a_at) / Fold change /veh RGS16 (11746705_a_at) / RFU VCAN (11755009_s_at) / Fold change /veh VCAN (11755009_s_at) / RFU RHOB (11743442_s_at) / Fold change /veh RHOB (11743442_s_at) / RFU RGS16 (11720943_a_at) / Fold change /veh RGS16 (11720943_a_at) / RFU RGS16 (11720944_at) / Fold change /veh RGS16 (11720944_at) / RFU, VPS4B / Fold change vs veh, VPS4B / RFU, CREB1 / Fold change vs veh, CREB1 / RFU, DNAJC13 / Fold change vs veh, DNAJC13 / RFU, GNAQ / Fold change vs veh, GNAQ / RFU, CDK5R1 / Fold change vs veh, CDK5R1 / RFU, ZRANB3 / Fold change vs veh, ZRANB3 / RFU, CUL4A / Fold change vs veh, CUL4A / RFU, CCNY / Fold change vs veh, CCNY / RFU, UFL1 / Fold change vs veh, UFL1 / RFU, COG3 / Fold change vs veh, COG3 / RFU, DIAPH2 / Fold change vs veh, DIAPH2 / RFU, SKA2 / Fold change vs veh, SKA2 / RFU, AFF3 / Fold change vs veh, AFF3 / RFU, LMF1 / Fold change vs veh, LMF1 / RFU, IPO11 / Fold change vs veh, IPO11 / RFU, DFFB / Fold change vs veh, DFFB / RFU, FOXP1 / Fold change vs veh, FOXP1 / RFU, CARD8 / Fold change vs veh, CARD8 / RFU, STRN3 / Fold change vs veh, STRN3 / RFU, ADK / Fold change vs veh, ADK / RFU, RASSF2 / Fold change vs veh, RASSF2 / RFU, WIPF1 / Fold change vs veh, WIPF1 / RFU, LARP1B / Fold change vs veh, LARP1B / RFU, RASA1 / Fold change vs veh, RASA1 / RFU, RB1 / Fold change vs veh, RB1 / RFU, PPFIA1 / Fold change vs veh, PPFIA1 / RFU, MAT2A / Fold change vs veh, MAT2A / RFU, CCT5 / Fold change vs veh, CCT5 / RFU, WDR92 / Fold change vs veh, WDR92 / RFU, CUX1 / Fold change vs veh, CUX1 / RFU, TTC7A / Fold change vs veh, TTC7A / RFU, TMEM135 / Fold change vs veh, TMEM135 / RFU, DEPTOR / Fold change vs veh, DEPTOR / RFU, CPM / Fold change vs veh, CPM / RFU, DNAJB6 / Fold change vs veh, DNAJB6 / RFU, CACNA2D3 / Fold change vs veh, CACNA2D3 / RFU, DTX4 / Fold change vs veh, DTX4 / RFU, TFCP2 / Fold change vs veh, TFCP2 / RFU, GMCL1 /// GMCL1P1 / Fold change vs veh, GMCL1 /// GMCL1P1 / RFU, AEBP2 / Fold change vs veh, AEBP2 / RFU, SNHG1 /// SNORD22 /// SNORD25 /// SNORD26 /// SNORD27 /// SNORD28 /// SNORD29 /// SNORD31 / Fold change vs veh, SNHG1 /// SNORD22 /// SNORD25 /// SNORD26 /// SNORD27 /// SNORD28 /// SNORD29 /// SNORD31 / Fold change (Aza/veh), C12orf56 (ProbeSet 11735607_a_at) / Fold change (ACY-1035/veh), C12orf56 (ProbeSet 11735607_a_at) / Fold change (Aza/veh), FGFR1OP (ProbeSet 11751329_s_at) / Fold change (ACY-1035/veh), FGFR1OP (ProbeSet 11751329_s_at) / Fold change (Aza/veh), VPS36 (ProbeSet 11739960_a_at) / Fold change (ACY-1035/veh), VPS36 (ProbeSet 11739960_a_at) / RFU SYPL1 (11715823_x_at) / Fold change /veh SYPL1 (11715823_x_at) / RFU IGFBP7 (11715501_s_at) / Fold change /veh IGFBP7 (11715501_s_at) / RFU REEP3 (11722064_at) / Fold change /veh REEP3 (11722064_at) / RFU IGLL1 (11728026_x_at) / Fold change /veh IGLL1 (11728026_x_at): dose or concentration left out as unconfirmed. The following applies: MV-4-11 cells, 48 hours.

SMILES strings stand for the structures.

As for `Nc1ncn([C@@H]2O[C@H](CO)[C@@H](O)[C@H]2O)c(=O)n1` [azacitidine], the “RFU RGS16 (11746705_a_at)” value was determined as 77.87 RFU.
